# Test results published in article PMC10709440, “High-throughput ligand profile characterization in novel cell lines expressing seven heterologous insect olfactory receptors for the detection of volatile plant biomarkers” (Scientific Reports, 2023).
# Where “and” joins values, the source holds several entries; their conditions need not be identical. Identical values can stand only once. Like-named read-outs stand apart in the source and are kept apart here.
# Tests used:
# Drosophila OR47a = biological target: T1, Drosophila OR47a (Drosophila melanogaster, UniProt P81921); test: Calcium ion fluorescence (GCaMP6) assay, OR47a stable HEK293 cell line; format: cell-based; conditions: for Average response: mean of biological replicates; for DF norm AVERAGE OR47a: threshold 0.05, below shown as 0
# T1 construct: expressed in transfected cells
# T1 sequence (P81921 1-385): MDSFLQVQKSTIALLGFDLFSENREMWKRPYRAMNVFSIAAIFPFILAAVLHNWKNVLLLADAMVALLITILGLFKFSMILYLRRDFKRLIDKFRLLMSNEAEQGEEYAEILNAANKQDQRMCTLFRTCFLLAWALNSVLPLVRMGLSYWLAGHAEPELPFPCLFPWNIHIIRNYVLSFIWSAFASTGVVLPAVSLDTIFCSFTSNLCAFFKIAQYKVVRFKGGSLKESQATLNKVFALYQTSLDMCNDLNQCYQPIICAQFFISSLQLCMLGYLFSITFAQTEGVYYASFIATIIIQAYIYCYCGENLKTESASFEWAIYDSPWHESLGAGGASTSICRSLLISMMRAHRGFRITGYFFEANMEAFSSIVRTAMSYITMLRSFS
# T1 sequence (Q9VNB5 1-486 partner): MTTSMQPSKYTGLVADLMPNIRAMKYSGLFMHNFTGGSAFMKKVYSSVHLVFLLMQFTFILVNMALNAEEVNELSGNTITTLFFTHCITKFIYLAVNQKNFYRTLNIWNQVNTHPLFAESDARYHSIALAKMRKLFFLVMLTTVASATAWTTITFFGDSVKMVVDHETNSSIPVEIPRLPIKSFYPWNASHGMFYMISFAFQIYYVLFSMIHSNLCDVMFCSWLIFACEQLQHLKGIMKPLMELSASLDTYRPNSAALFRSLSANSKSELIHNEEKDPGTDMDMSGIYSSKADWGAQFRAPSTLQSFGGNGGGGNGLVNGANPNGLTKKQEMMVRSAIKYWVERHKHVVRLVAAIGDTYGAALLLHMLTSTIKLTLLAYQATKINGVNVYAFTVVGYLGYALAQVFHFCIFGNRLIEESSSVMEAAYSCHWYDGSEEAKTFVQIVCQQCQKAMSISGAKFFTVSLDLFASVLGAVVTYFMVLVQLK
# How it was run: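 HEK293 lines stably expressing each Drosophila OR with GCaMP6, doxycycline-induced (1 μg/mL) 48 or 72 h. Fluorescence recorded 5 s baseline then 30 s after VOC injection at pH 7.3; ΔF=(FMAX−F0)/F0, normalized to 50 µM VUAA1 response per line, triplicate wells averaged; concentration series 0.01–100 μM.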
# Drosophila OR98a = biological target: T2, Drosophila OR98a (Drosophila melanogaster, UniProt Q9VAZ3); test: Calcium ion fluorescence (GCaMP6) assay, OR98a stable HEK293 cell line; format: cell-based; conditions: for DF norm AVERAGE OR98a: threshold 0.05, below shown as 0
# T2 construct: expressed in transfected cells
# T2 sequence (Q9VAZ3 1-397): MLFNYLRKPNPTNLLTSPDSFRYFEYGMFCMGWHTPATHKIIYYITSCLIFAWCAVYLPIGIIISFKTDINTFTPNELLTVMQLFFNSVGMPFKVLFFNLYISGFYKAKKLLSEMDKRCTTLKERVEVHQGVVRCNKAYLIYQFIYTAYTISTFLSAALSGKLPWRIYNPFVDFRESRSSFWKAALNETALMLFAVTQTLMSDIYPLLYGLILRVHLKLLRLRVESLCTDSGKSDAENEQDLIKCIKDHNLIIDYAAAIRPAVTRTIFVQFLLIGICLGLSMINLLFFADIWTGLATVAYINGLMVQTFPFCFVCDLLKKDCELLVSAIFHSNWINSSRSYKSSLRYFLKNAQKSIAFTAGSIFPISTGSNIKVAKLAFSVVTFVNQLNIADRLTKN
# T2 sequence (Q9VNB5 1-486 partner): T1 sequence (Q9VNB5 1-486 partner)
# Description: These VUAA1 normalized ∆F values were used to compare the different receptors and ligands.
# The concentration-dependent effect of the reference ligands on their cognate cell lines was examined in more detail. Twelve different ligand concentrations were measured on each cell line in an overall 0.01 μM to 100 μM concentration range with 5 repetitions with three technical replicates each time.
# Twelve thousand to 18,000 cells were plated into each well of a black wall, transparent bottom 384-well microplate (Greiner) 48 h or 72 h before the measurements and were simultaneously treated with 1 μg/mL doxycycline. […] The plate has 24 columns, thus we could record responses in up to eight different cell lines in each plate. On the day of the experiment, the growth medium was replaced with 20 µL assay buffer/well (140 mM NaCl, 5 mM KCl, 2 mM CaCl2, 1 mM MgCl2, 5 mM HEPES-Na, 20 mM glucose, pH 7.3, 340 mOsm). […] Baseline fluorescence (F0) was recorded for 5 s, after which 7 µL VOC buffer (140 mM NaCl, 5 mM KCl, 2 mM CaCl2, 1 mM MgCl2, 5 mM HEPES-Na, 31 mM glucose, 0.1% DMSO, pH 7.3, 340 mOsm) was injected into each well in one row and the fluorescence response was recorded for an additional 30 s, at a rate of one read/sec. VOC solutions (VOC buffer with 4× concentration of the final measured VOC concentration, 9 µL/well was injected) were measured on the same wells in a second round with the same protocol. Each individual concentration of a specific VOC sample was recorded in three wells for the same cell line on the same microplate. The raw data were exported in xls file format, F0 and FMAX values, and the fluorescence intensity changes (∆F) were calculated in Excel (Microsoft) (Supplementary file Data summary.xlsx) using the following equation: ΔF=FMAX-F0/F0 (see also Fig. 1C). On each plate, we recorded the response of each cell line to 50 µM VUAA1. The average of these ∆F values of each cell line were used to calculate the VUAA1-normalized values for the rest of the plate, by dividing VOC response ∆F values by the average VUAA1 response ∆F value of the corresponding OR cell line. Each VOC-OR combination was measured three times as technical replicates. […] The average of these replicates were used as one ∆F and VUAA1-normalized ∆F in the following analysis.
# In the next rows we tested the reference VOCs (or other VOCs known to activate the corresponding cell lines), in order to test if all cell lines are responsive. The remaining rows were used to test VOCs with unknown effect.
# The recorded FMAX, F0, ∆F, VUAA1-normalized ∆F values, as well as the OR name, the name of the tested sample, and the final concentration for each well were copied into supplementary file Data summary.xlsx, that was used to summarize all the plates recorded. Here, the averages of the measurements were calculated for each receptor-VOC-concentration combination.
# [1] = HEK293, read-out: OR47a Average response (VUAA1-normalized)
# [2] = ligand concentration 1 (unit not given)
# [3] = ligand concentration 10 (unit not given)
# [4] = ligand concentration 100 (unit not given)
# [5] = HEK293, read-out: Average response
# [6] = HEK293, read-out: OR98a Average response (VUAA1-normalized)
structure (smiles),measurement,setting,value
CCCCCOC(C)=O [pentyl acetate],EC50,"Drosophila OR47a; AVERAGE EC50, the 14th table, corresponds to average LOG EC50, given with 95% confidence interval",2220 nM
same,EC50,"Drosophila OR47a; EC50, AVERAGE of replicate fits, the 14th table, arithmetic average, N 5",2410 nM
same,EC50,"Drosophila OR47a; EC50, OR47a cell line, fitted Hill equation, Hill coefficient constrained to 1, maximal response max 1",2220 nM
same,EC50,"Drosophila OR47a; EC50, fitted average curve, the 14th table, fit to the average curve, n 0.854956",2560 nM
same,EC50,"Drosophila OR47a; EC50, fitted parameter per biological replicate, the 14th table, individual replicate fits",1810 nM and 2840 nM and 3360 nM and 2980 nM and 1050 nM
same,activation at 1 µM,Drosophila OR47a; [1],41%
same,activation at 10 µM,Drosophila OR47a; [1],85%
same,activation at 100 µM,Drosophila OR47a; [1],76%
same,Emax,"Drosophila OR47a; HEK293, read-out: VUAA1 normalized MAX response",96%
same,EC50,"Drosophila OR47a; LOG EC50, AVERAGE of replicate fits, the 14th table, N 5",2220 nM
same,EC50,"Drosophila OR47a; LOG EC50, fitted parameter per biological replicate, the 14th table, OR47a D-R pentyl acetate, individual replicate fits, MIN 0, n 1",1810 nM and 2840 nM and 3360 nM and 2980 nM and 1050 nM
same,OR47a response (VUAA1-normalized) at 1 μM,"Drosophila OR47a; OR47a cell line, VOC concentration 1 μM",0.41
same,OR47a response (VUAA1-normalized) at 10 μM,"Drosophila OR47a; OR47a cell line, VOC concentration 10 μM",0.85
same,OR47a response (VUAA1-normalized) at 100 μM,"Drosophila OR47a; OR47a cell line, VOC concentration 100 μM",0.76
same,Average response,"Drosophila OR47a; OR47a cell line, odorant cc. 1 µM",0.41
same,Average response,"Drosophila OR47a; OR47a cell line, odorant cc. 10 µM",0.85
same,Average response,"Drosophila OR47a; OR47a cell line, odorant cc. 100 µM",0.76
same,DF norm AVERAGE OR47a,Drosophila OR47a; [2],0.4101
same,DF norm AVERAGE OR47a,Drosophila OR47a; [3],0.8532
same,DF norm AVERAGE OR47a,Drosophila OR47a; [4],0.7595
same,"dose-response, response per biological replicate","Drosophila OR47a; the 14th table, VOC concentration 0.15",0 (2×) and 0.08996
same,"dose-response, AVERAGE response","Drosophila OR47a; the 14th table, VOC concentration 0.15, N 3",0.02999
same,"dose-response, response per biological replicate","Drosophila OR47a; the 14th table, VOC concentration 0.3",0 (2×) and 0.06871 and 0.1596
same,"dose-response, AVERAGE response","Drosophila OR47a; the 14th table, VOC concentration 0.3, N 4",0.05709
same,"dose-response, response per biological replicate","Drosophila OR47a; the 14th table, VOC concentration 0.6",0.1609 and 0.1169 and 0.06805 and 0.08558 and 0.2252
same,"dose-response, AVERAGE response","Drosophila OR47a; the 14th table, VOC concentration 0.6, N 5",0.1313
same,"dose-response, response per biological replicate","Drosophila OR47a; the 14th table, VOC concentration 1.25",0.1915 and 0.1656 and 0.1715 and 0.5641
same,"dose-response, AVERAGE response","Drosophila OR47a; the 14th table, VOC concentration 1.25, N 4",0.2732
same,"dose-response, response per biological replicate","Drosophila OR47a; the 14th table, VOC concentration 2.5",0.3991 and 0.4483 and 0.3729 and 0.3818 and 0.7224
same,"dose-response, AVERAGE response","Drosophila OR47a; the 14th table, VOC concentration 2.5, N 5",0.4649
same,"dose-response, response per biological replicate","Drosophila OR47a; the 14th table, VOC concentration 5",0.9001 and 0.6438 and 0.6113 and 0.6294 and 0.9303
same,"dose-response, AVERAGE response","Drosophila OR47a; the 14th table, VOC concentration 5, N 5",0.743
same,"dose-response, response per biological replicate","Drosophila OR47a; the 14th table, VOC concentration 10",0.8372 and 0.7794 and 0.895 and 0.7979 and 1.027
same,"dose-response, AVERAGE response","Drosophila OR47a; the 14th table, VOC concentration 10, N 5",0.8674
same,"dose-response, response per biological replicate","Drosophila OR47a; the 14th table, VOC concentration 20",1.202 and 0.8226 and 0.9992 and 0.8736 and 1.052
same,"dose-response, AVERAGE response","Drosophila OR47a; the 14th table, VOC concentration 20, N 5",0.99
same,"dose-response, response per biological replicate","Drosophila OR47a; the 14th table, VOC concentration 40",1.114 and 0.9003 and 0.922 and 0.9538 and 0.9871
same,"dose-response, AVERAGE response","Drosophila OR47a; the 14th table, VOC concentration 40, N 5",0.9754
same,"dose-response, response per biological replicate","Drosophila OR47a; the 14th table, VOC concentration 60",1.02 and 0.8294 and 1.116 and 0.8263 and 0.955
same,"dose-response, AVERAGE response","Drosophila OR47a; the 14th table, VOC concentration 60, N 5",0.9493
same,"dose-response, response per biological replicate","Drosophila OR47a; the 14th table, VOC concentration 80",0.8413 and 0.8664 and 0.788 and 0.8411
same,"dose-response, AVERAGE response","Drosophila OR47a; the 14th table, VOC concentration 80, N 4",0.8342
same,"dose-response, response per biological replicate","Drosophila OR47a; the 14th table, VOC concentration 100",0.8402 and 0.9595 and 0.7641 and 0.7857
same,"dose-response, AVERAGE response","Drosophila OR47a; the 14th table, VOC concentration 100, N 4",0.8374
same,AVERAGE MAX,"Drosophila OR47a; the 14th table, average of replicate fits, N 5",0.9609
same,"MAX, fitted average curve","Drosophila OR47a; the 14th table, fit to the average curve, n 0.854956",1
same,"MAX, fitted parameter per biological replicate","Drosophila OR47a; the 14th table, individual replicate fits",1 (2×) and 0.9126 and 0.907 and 0.9849
same,activation at 1 µM,Drosophila OR98a; [5],1.61%
same,activation at 10 µM,Drosophila OR98a; [5],4%
same,activation at 100 µM,Drosophila OR98a; [5],14%
same,activation at 1 µM,Drosophila OR98a; [6],2%
same,activation at 10 µM,Drosophila OR98a; [6],4%
same,activation at 100 µM,Drosophila OR98a; [6],14%
same,OR98a response (VUAA1-normalized) at 1 μM,"Drosophila OR98a; OR98a cell line, VOC concentration 1 μM",0.00
same,OR98a response (VUAA1-normalized) at 10 μM,"Drosophila OR98a; OR98a cell line, VOC concentration 10 μM",0.00
same,OR98a response (VUAA1-normalized) at 100 μM,"Drosophila OR98a; OR98a cell line, VOC concentration 100 μM",0.14
same,DF norm AVERAGE OR98a,Drosophila OR98a; [2],0
same,DF norm AVERAGE OR98a,Drosophila OR98a; [3],0
same,DF norm AVERAGE OR98a,Drosophila OR98a; [4],0.136
